Measured values as given in patent publication US10766855B2, “Hydroxamate triterpenoid derivatives” (VIVACELL BIOTECHNOLOGY ESPANA S.L., priority 2016, dated 2020).

How the values were obtained:
[1] = tested on: HUVEC; experiment: Endothelial cell tube formation (angiogenesis) in HUVEC co-cultured with fibroblasts; format: cell-based, human; settings: 1 μM, 7 days
Method: Measurements of endothelial cell tube formation as a model of angiogenesis in green fluorescent Human endothelial vascular cells (HUVEC) co-cultured with primary fibroblasts and stimulated separately with compound VII (1 μM), rhFGF (10 ng/ml) and VEGFA (10 ng/ml) for 7 days. Values represent the mean±SEM (n=3).
To test the functional consequences of compound VII stimulation in a physiological model, endothelial cell tube formation was measured as a model of angiogenesis. CellPlayer™ GFP AngioKit-96 (Essen BioScience Inc., Welwyn Garden City, UK) was supplied as growing co-cultures of human matrix (normal human dermal fibroblast, NHDF) and endothelial cells (HUVEC) at the earliest stages of tubule formation. CellPlayer 96-well kinetic angiogenesis assay was performed according to the manufacturer's protocol. Briefly, lentivirally infected green fluorescent protein (GFP)-HUVECs were cocultured with normal human dermal fibroblasts in a 96-well microplate. The plate was placed in IncuCyte, and images were automatically acquired in both phase and fluorescence every 6 hours for 7 days. […] Tube formation over the 7-day assay was quantified using the Essen BioScience Angiogenesis Analysis Module. […] Briefly, the fluorescent images were analyzed to generate a segmentation mask closely resembling the in vitro network. […]

[2] = tested on: HFD mice; experiment: High fat diet (HFD) model of diabetes and metabolic pathologies in mice; format: in vivo, mouse; settings: 30 mg/kg i.p. every 24 h
Method: High-fat diet-fed mouse is a widely used model for impaired glucose tolerance (IGT) and type 2 diabetes. Eight-week-old male C57BL/6 mice (Charles River-France) were used for experiments. Mice were maintained under controlled conditions [12 h light/dark cycle; temperature 20° C. (±2° C.) and 40-50% relative humidity] with free access to tap water and standard rodent chow ad libitum. After 1 week of acclimatization, mice were divided into two groups and fed ad libitum with a standard diet—CD- (Code U8220G10R, SAFE Diets, Augy, France) or a High-Fat diet—HFD- (D12451; Research Diets, New Brunswick, N.J.) in order to induce obesity for 15 weeks (diet-induced obesity, DIO). In order to assess the potential beneficial metabolic effects of compound VII in this model of DIO, pharmacological administration of the compound (30 mg/kg body weight) was performed by intraperitoneal (i.p.) injection every 24 h from 12th to 15th week of diet exposure. Control animals received the corresponding vehicle injections (1:1:18 Ethanol:Cremophor:Saline).
To ensure the effectiveness of HFD feeding regimen and assess the efficacy of compounds in terms of amelioration of the metabolic phenotype, body composition analyses of fat and lean masses were performed by QMR (quantitative magnetic resonance) using the EchoMRI™ 700 analyzer (Houston, Tex., software v. 2.0). In this sense, MRI scans were taken in three time points during the experimental period: before starting diet exposure, after 12 week of feeding regimen (coinciding with start of treatment) and at the end of experimental procedures (on the 15th week of diet exposure). Additionally, five days before sacrifice, glucose tolerance test (GTT) was performed in overnight food-deprived mice. To this end, mice were injected intraperitoneally with 2 mg of glucose/g body weight and blood glucose was measured before and 30, 60 and 120 min after injection utilizing an Accu-Chek Advantage® (Roche) glucometer. At the end of the experiment, mice were sacrificed and blood samples were collected using EDTA-coated tubes and plasma stored at −80° C. Plasma triglycerides were measured using and enzymatic colorimetric kit (QCA, Barcelona, Spain).

[3] = tested on: STHdhQ7/Q7 and STHdhQ111/Q111 striatal cells; experiment: 3-NP-induced cytotoxicity in striatal Q7 and Q111 cells (YOYO-1); format: cell-based, mouse; settings: 6 h pre-treatment, 3-NP 10 mM 24 h; compound VII increasing concentrations, DFX 50 μM
Method: FIG. 8. Compound VII abrogates 3-NP toxicity in Q7 and […] striatal cells. Q7 and Q111 Striatal cells were pretreated with increasing concentrations of compound VII for 6 h and then exposed to 3-NP (10 mM) for an additional 24 h, after which YOYO-1 staining was used to investigate cell death. Cell death was determined using the IncuCyte HD software and the treatment with 3-NP alone in Q111 cells was considered as 100% of cell death.
To investigate whether HIF activation in striatal Q7 and Q111 cells is sufficient to protect striatal neurons (provide neuroprotection), the effect of compound VII on 3-NP induced death was examined. […]
STHdh^Q7/Q7 and STHdh^Q111/Q111 cells (10^4 cells/well in 96-well plates) were incubated with YOYO-1 (Life Technologies) and then treated with 3-NP (10 mM) and or DFX (50 μM) as a positive control for PHDs inhibition. […] The uptake of YOYO-1 by damaged cells correlates with the increase in YOYO-1 fluorescence. Treated cells are placed in an Incucyte FLR imaging system, and the YOYO-1 fluorescence is measured after 24 h of 3-NP treatment. Following the incubation period object counting analysis was performed using the Incucyte FLR software to calculate the total number of YOYO-1 fluorescence positive cells and total DNA containing objects (end point). […]

In the case of `C=C(C)[C@@H]1CC[C@]2(C(=O)NO)CC[C@]3(C)[C@H](CC[C@@H]4[C@@]5(C)CC[C@H](O)C(C)(C)[C@@H]5CC[C@]43C)[C@@H]12` [Compound VII, (3β) 3-Hydroxy-N-hydroxy-lup-20(29)-en-28-amide], the “network length in HUVEC cells” value [1] is reported as “increased significantly the network length”, the “glucose tolerance (GTT)” value ([2]; 3 weeks) is reported as “improved glucose tolerance” and the “plasma levels of triglycerides” value ([2]; 3 weeks) is reported as “normalize the plasma levels of triglycerides”. For the same compound, the adiposity ([2]; 12th to 15th week) was “alleviated”, the “increase in Fat Mass” value ([2]; 12th to 15th week) was “alleviated” and the weight gain ([2]; 12th to 15th week) was “alleviated weight gain”. For the same compound, the “neuroprotection to 3-NP-induced cytotoxicity (cell death)” value [3] was “clearly provided a significant level of neuroprotection”.
